Test results as given in US11053239B2, “Compounds as BLC-2-selective apoptosis-inducing agents” (Fochon Pharmaceuticals, Ltd., priority 2017, dated 2021).
Where two headings read alike, the source gives them in different places.

Key:
RS4; 11 cells = assay: Cell proliferation assay (MTS), RS4; 11 cells; format: cell-based; conditions: Homo sapiens, RS4-11, 72 h, read-out: RS4
Procedure, shortened: (§1)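 RS4;11 (30000 cells/well, 72 h) and DOHH2 (5000 cells/well, 120 h) cells in RPMI-1640/10% FBS, treated at 37 °C with compound at 1.5–10000 nM final. Viability by MTS (2 h, SDS stop), absorbance 490 nm minus 650 nm reference; IC50 fitted.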

DOHH2 cells = assay: Cell proliferation assay (MTS), DOHH2 cells; format: cell-based; conditions: Homo sapiens, DOHH-2, 120 h
Procedure, shortened: as §1

[1] = RS4, 11 (ATCC CRL-1873) cell proliferation, 30000 cells/well, 72 h, MTS, mechanism-based readout of Bcl-2 inhibition, 11 IC50
[2] = DOHH2 (DSMZ ACC 47) cell proliferation, 5000 cells/well, 120 h, MTS, mechanism-based readout of Bcl-2 inhibition, read-out: DOHH2 IC50

In the case of `CCS(=O)(CC)=NC1CCC(CNc2ccc(S(=O)(=O)NC(=O)c3ccc(N4CCN(CC5=C(c6ccc(Cl)cc6)CC(C)(C)CC5)CC4)cc3Oc3cnc4[nH]ccc4c3)cc2[N+](=O)[O-])CC1` (centres unmarked) [Example 9B, 2-((1H-pyrrolo[2,3-b]pyridin-5-yl)oxy)-4-(4-((4′-chloro-5,5-dimethyl-3,4,5,6-tetrahydro-[1,1′-biphenyl]-2-yl)methyl)piperazin-1-yl)-N-((4-((((1r,4r)-4-((diethyl(oxo)-λ^6-sulfanylidene)amino)cyclohexyl)methyl)amino)-3-nitrophenyl)sulfonyl)benzamide], the IC50 (RS4; 11 cells; 11 IC50 (nM)) is reported as 5 nM and the IC50 (DOHH2 cells; read-out: DOHH2 IC50 (nM)) is reported as 11 nM.

`CC(C)OC(=O)N=S1(=O)CCN(C[C@H](C)Nc2ccc(S(=O)(=O)NC(=O)c3ccc(N4CCN(CC5=C(c6ccc(Cl)cc6)CC(C)(C)CC5)CC4)cc3Oc3cnc4[nH]ccc4c3)cc2[N+](=O)[O-])CC1` [Example 73, isopropyl (S)-(4-(2-((4-(N-(2-((1H-pyrrolo[2,3-b]pyridin-5-yl)oxy)-4-(4-((4′-chloro-5,5-dimethyl-3,4,5,6-tetrahydro-[1,1′-biphenyl]-2-yl)methyl)piperazin-1-yl)benzoyl)sulfamoyl)-2-nitrophenyl)amino)propyl)-1-oxido-1λ^6-thiomorpholin-1-ylidene)carbamate] was tested, and the IC50 (RS4; 11 cells; [1]) was 94 nM and the IC50 (DOHH2 cells; [2]) was 263 nM.

For `C[C@@H](CN1CCS(=O)(=NC2CC2)CC1)Nc1ccc(S(=O)(=O)NC(=O)c2ccc(N3CCN(CC4=C(c5ccc(Cl)cc5)CC(C)(C)CC4)CC3)cc2Oc2cnc3[nH]ccc3c2)cc1[N+](=O)[O-]` [Example 39, (S)-2-((1H-pyrrolo[2,3-b]pyridin-5-yl)oxy)-4-(4-((4′-chloro-5,5-dimethyl-3,4,5,6-tetrahydro-[1,1′-biphenyl]-2-yl)methyl)piperazin-1-yl)-N-((4-((1-(1-(cyclopropylimino)-1-oxido-1λ^6-thiomorpholino)propan-2-yl)amino)-3-nitrophenyl)sulfonyl)benzamide], the IC50 (RS4; 11 cells; [1]) was 40 nM and the IC50 (DOHH2 cells; [2]) was 163 nM.

With `COC(=O)N=S1(=O)CCN(CC[C@H](C)Nc2ccc(S(=O)(=O)NC(=O)c3ccc(N4CCN(CC5=C(c6ccc(Cl)cc6)CC(C)(C)CC5)CC4)cc3Oc3cnc4[nH]ccc4c3)cc2[N+](=O)[O-])CC1` [Example 84, methyl (S)-(4-(3-((4-(N-(2-((1H-pyrrolo[2,3-b]pyridin-5-yl)oxy)-4-(4-((4′-chloro-5,5-dimethyl-3,4,5,6-tetrahydro-[1,1′-biphenyl]-2-yl)methyl)piperazin-1-yl)benzoyl)sulfamoyl)-2-nitrophenyl)amino)butyl)-1-oxido-1λ^6-thiomorpholin-1-ylidene)carbamate] the IC50 (RS4; 11 cells; [1]) was 11 nM and the IC50 (DOHH2 cells; [2]) was 15 nM.

`CC1(C)CCC(CN2CCN(c3ccc(C(=O)NS(=O)(=O)c4ccc(NCC5CCS(=O)(=NC6CC6)CC5)c([N+](=O)[O-])c4)c(Oc4cnc5[nH]ccc5c4)c3)CC2)=C(c2ccc(Cl)cc2)C1` (centres unmarked) [Example 5, 2-((1H-pyrrolo[2,3-b]pyridin-5-yl)oxy)-4-(4-((4′-chloro-5,5-dimethyl-3,4,5,6-tetrahydro-[1,1′-biphenyl]-2-yl)methyl)piperazin-1-yl)-N-((4-(((1-(cyclopropylimino)-1-oxidohexahydro-1λ^6-thiopyran-4-yl)methyl)amino)-3-nitrophenyl)sulfonyl)benzamide] gave an IC50 (RS4; 11 cells; [1]) of 43 nM and an IC50 (DOHH2 cells; [2]) of 92 nM.

Work on `CC1(C)CCC(CN2CCN(c3ccc(C(=O)NS(=O)(=O)c4ccc(NCC5CCS(=O)(=NC6CC6)CC5)c(S(=O)(=O)C(F)(F)F)c4)c(Oc4cnc5[nH]ccc5c4)c3)CC2)=C(c2ccc(Cl)cc2)C1` (centres unmarked) [Example 8, 2-((1H-pyrrolo[2,3-b]pyridin-5-yl)oxy)-4-(4-((4′-chloro-5,5-dimethyl-3,4,5,6-tetrahydro-[1,1′-biphenyl]-2-yl)methyl)piperazin-1-yl)-N-((4-(((1-(cyclopropylimino)-1-oxidohexahydro-1λ^6-thiopyran-4-yl)methyl)amino)-3-((trifluoromethyl)sulfonyl)phenyl)sulfonyl)benzamide] yielded an IC50 (RS4; 11 cells; [1]) of 33 nM and an IC50 (DOHH2 cells; [2]) of 99 nM.

In the case of `CC(=O)N=S1(=O)CCN(CC[C@H](C)Nc2ccc(S(=O)(=O)NC(=O)c3ccc(N4CCN(CC5=C(c6ccc(Cl)cc6)CC(C)(C)CC5)CC4)cc3Oc3cnc4[nH]ccc4c3)cc2S(=O)(=O)C(F)(F)F)CC1` [Example 89, (S)-2-((1H-pyrrolo[2,3-b]pyridin-5-yl)oxy)-N-((4-((4-(1-(acetylimino)-1-oxido-1λ^6-thiomorpholino)butan-2-yl)amino)-3-((trifluoromethyl)sulfonyl)phenyl)sulfonyl)-4-(4-((4′-chloro-5,5-dimethyl-3,4,5,6-tetrahydro-[1,1′-biphenyl]-2-yl)methyl)piperazin-1-yl)benzamide], the IC50 (RS4; 11 cells; [1]) is reported as 53 nM and the IC50 (DOHH2 cells; [2]) is reported as 112 nM.

`CCOC(=O)N=S1(=O)CCN(CC[C@H](C)Nc2ccc(S(=O)(=O)NC(=O)c3ccc(N4CCN(CC5=C(c6ccc(Cl)cc6)CC(C)(C)CC5)CC4)cc3Oc3cnc4[nH]ccc4c3)cc2[N+](=O)[O-])CC1` [Example 85, ethyl (S)-(4-(3-((4-(N-(2-((1H-pyrrolo[2,3-b]pyridin-5-yl)oxy)-4-(4-((4′-chloro-5,5-dimethyl-3,4,5,6-tetrahydro-[1,1′-biphenyl]-2-yl)methyl)piperazin-1-yl)benzoyl)sulfamoyl)-2-nitrophenyl)amino)butyl)-1-oxido-1λ^6-thiomorpholin-1-ylidene) carbamate] showed an IC50 (RS4; 11 cells; [1]) of 36 nM and an IC50 (DOHH2 cells; [2]) of 30 nM.

`CC(=O)N=S1(=O)CCN(CC[C@H](C)Nc2ccc(S(=O)(=O)NC(=O)c3ccc(N4CCN(CC5=C(c6ccc(Cl)cc6)CC(C)(C)CC5)CC4)cc3Oc3cnc4[nH]ccc4c3)cc2[N+](=O)[O-])CC1` [Example 80] showed an IC50 (RS4; 11 cells; [1]) of 47 nM and an IC50 (DOHH2 cells; [2]) of 95 nM.

`CCC(=O)N=S1(=O)CCN(CC[C@H](C)Nc2ccc(S(=O)(=O)NC(=O)c3ccc(N4CCN(CC5=C(c6ccc(Cl)cc6)CC(C)(C)CC5)CC4)cc3Oc3cnc4[nH]ccc4c3)cc2[N+](=O)[O-])CC1` [Example 81, (S)-2-((1H-pyrrolo[2,3-b]pyridin-5-yl)oxy)-4-(4-((4′-chloro-5,5-dimethyl-3,4,5,6-tetrahydro-[1,1′-biphenyl]-2-yl)methyl)piperazin-1-yl)-N-((3-nitro-4-((4-(1-oxido-1-(propionylimino)-1λ^6-thiomorpholino)butan-2-yl)amino)phenyl)sulfonyl) benzamide] was tested, and the IC50 (RS4; 11 cells; [1]) was 7 nM and the IC50 (DOHH2 cells; [2]) was 30 nM.
